Data published in patent US6670307B2, “1,3-oxazoline and 1,3-thiazoline derivatives, their preparation, and their use as pesticides” (Hoechst Schering AgrEvo GmbH, priority 1998, dated 2003).

Columns and labels:
Heliothis virescens = assay: Effect on the egg-larval stage of Heliothis virescens; type: in vivo; details: 144 h, read-out: mortality of eggs and any larvae hatched from them
Protocol: Effect on the Egg-Larval Stage of Heliothis virescens
A Petri dish whose bottom was covered with filter paper and which contained approx. 5 ml of nutrient medium was prepared. Filter paper sections containing approx. 30 24-hour-old eggs of the tobacco budworm (Heliothis virescens) were immersed for 5 seconds into an aqueous solution of the formulated preparation to be tested and subsequently placed in the Petri dish. A further 200 μl of the aqueous solution were distributed over the nutrient medium. After the Petri dish had been sealed, it was stored in a controlled-environment cabinet at approx. 25° C. After 6 days' storage, the mortality of the preparation on the eggs and any larvae hatched from them was determined. At a concentration of 300 ppm (based on the active substance content), a 90-100% mortality was caused by the preparations of Examples 1, 2, 3, 4, 5, 6, 7, 8, 14, 17, 21, 22, 23, 34, 35, 39, 40, 43, 44, 106.

Aphis fabae = assay: Effect on the aphid Aphis fabae (spray on infested field beans); type: in vivo; details: 72 h, read-out: mortality of the aphids
Protocol: Effect on the Aphid Aphis fabae
Field beans (Vicia faba) which were densly populated with the black bean aphid (Aphis fabae) were sprayed to runoff point with an aqueous solution of the formulated preparation to be tested. The mortality of the aphids was determined after 3 days. At a concentration of 300 ppm (based on the active substance content), a 90-100% mortality was shown by the preparations of Examples 1, 2, 3, 4, 7, 8, 152.

Ctenocephalides felis = assay: Effect on developmental stages of the cat flea Ctenocephalides felis (treated larval medium); type: in vivo; details: 1000 ppm in larval nutrient medium, approx. 30 flea eggs, read-out: mortality (hatching of flea larvae and development into pupae and adult fleas)
Description: Effect on Developmental Stages of the Cat Flea Ctenocephalides felis
The larval nutrient medium of the cat flea, composed of equal parts of blood meal and quartz sand, was admixed with the test substance at a concentration of 1000 ppm. Approx. 30 flea eggs freshly obtained from a breeding colony were transferred onto the medium. To assess the affect of the preparation, hatching of the flea larvae and their development into pupae and adult fleas was observed. A mortality of 100% was caused by the test substances of Examples 2, 3 and 4.

[1] = test system: Diabrotica undecimpunctata; assay: Effect on the corn budworm Diabrotica undecimpunctata (L2 larvae, soil application); type: in vivo; details: for mortality at 300 ppm: Diabrotica undecimpunctata, soil, 120 h, read-out: mortality of the test animals; for mortality of the test animals: 300 ppm (based on active substance content), 1 ml pipetted onto soil, L2 larvae, after 5 days at 21° C.
Protocol: Effect on the Corn Budworm Diabrotica undecimpunctata
Maize seed was pregerminated for 6 hours while submerged in water, then placed into 10-ml glass tubes and covered with 2 ml of soil in each case. After 1 ml of water had been added, the plants remained in the glass tubes at 21° C. until plant length was approx. 3 cm. 10 L2 larvae of the corn budworm (Diabrotica undecimpunctata) were then introduced into each tube on the soil. Two hours later, 1 ml of an aqueous solution of the formulated preparation to be tested were pipetted onto the soil surface in the tubes. After storage for 5 days under laboratory conditions at 21° C., the soil and root sections were examined for live Diabrotica larvae and the mortality was determined. At a concentration of 300 ppm (based on the active substance content), a 100% mortality of the test animals employed was shown by the preparations of Example 2, 3, 5, 9, 19, 39.

Tetranychus urticae = assay: Effect on the spider mites Tetranychus urticae (spray on infested bean plants); type: in vivo; details: 168 h, read-out: mortality of all mite stages
Protocol: Effect on the Spider Mites Tetranychus urticae
Bean plants (Phaseolus vulgaris) which were severely infested with a complete population of spider mites (Tetranychus urticae) were sprayed to runoff point with an aqueous solution of the formulated preparation to be tested. The mortality of all mite stages was determined after 7 days. At a concentration of 300 ppm (based on active substance content), a 90-100% mortality was shown by the preparations of Examples 1, 2, 3, 4, 7, 8, 9, 14, 18, 21, 31, 40, 41, 43, 44, 47, 51, 106, 152 and 153.

Lucilia cuprina = assay: Effect on the larvae of the copperbottle Lucilia cuprina (treated nutrient medium); type: in vivo; details: for mortality at 100 ppm: Lucilia cuprina, 72 h, read-out: mortality in the fly larvae; for mortality in the fly larvae: 100 ppm in larval nutrient medium of ground mutton, monitored over 72 hours
Protocol: Effect on the Larvae of the Copperbottle Lucilia cuprina
In a sample container, 20 recently hatched larvae of the copperbottle Lucilia cuprina were placed on a larval nutrient medium of ground mutton which contained the test substance in a concentration of 100 ppm. Larval growth on the nutrient medium is monitored over 72 hours up to larva 3. At a concentration of 100 ppm (based on the active substance content), a 100% mortality in the fly larvae employed was shown by the preparations of Examples 2, 3, 4, 5, 105, 106.

Spodoptera litoralis = assay: Effect on the butterfly larva Spodoptera litoralis (L4 larvae, Petri dish spray); type: in vivo; details: 96 h, read-out: larval mortality
Protocol: Effect on the Butterfly Larva Spodoptera litoralis
Ten L4 larvae of the Egyptian cotton leafworm (Spodoptera litoralis) were introduced into a Petri dish whose bottom was covered with filter paper and contained approx. 5 ml of nutrient medium. Filter paper, nutrient paper and the larvae which had been introduced were then sprayed with an aqueous solution of the formulated preparation to be tested. The Petri dish was subsequently sealed with a lid. After 4 days' storage at approx. 23° C., the effect of the preparation on the larvae was determined. At a concentration of 300 ppm (based on the active substance content), a 90-100% larval mortality was caused by the preparations of Examples 3, 4, 22, 105, 106.

## CCOc1ccc(-c2ccc(C3COC(c4c(F)cccc4F)=N3)cc2)cn1 (stereo not shown) [Example 2, 2-(2,6-Difluorophenyl)-4-[4-(2-ethoxypyridin-5-yl)phenyl]oxazoline]
Heliothis virescens
  mortality at 300 ppm: 90 to 100%
Aphis fabae
  mortality at 300 ppm: 90 to 100%
Ctenocephalides felis
  mortality at 1000 ppm: 100%
[1]
  mortality at 300 ppm: 100%
Tetranychus urticae
  mortality at 300 ppm: 90 to 100%
Lucilia cuprina
  mortality at 100 ppm: 100%

## Fc1cccc(F)c1C1=NC(c2ccc(-c3ccc(OCC(F)(F)F)nc3)cc2)CO1 (stereo not shown) [Example 3, 2-(2,6-Difluorophenyl)-4-[4-(2-trifluoroethoxypyridin-5-yl)phenyl]oxazoline]
Heliothis virescens
  mortality at 300 ppm: 90 to 100%
Aphis fabae
  mortality at 300 ppm: 90 to 100%
Ctenocephalides felis
  mortality at 1000 ppm: 100%
[1]
  mortality at 300 ppm: 100%
Tetranychus urticae
  mortality at 300 ppm: 90 to 100%
Spodoptera litoralis
  mortality at 300 ppm: 90 to 100%
Lucilia cuprina
  mortality at 100 ppm: 100%

## CCCOc1ccc(-c2ccc(C3COC(c4c(F)cccc4F)=N3)cc2)cn1 (stereo not shown) [Example 4, 2-(2,6-Difluorophenyl)-4-[4-(2-n-propyloxypyridin-5-yl)phenyl]oxazoline]
Heliothis virescens
  mortality at 300 ppm: 90 to 100%
Aphis fabae
  mortality at 300 ppm: 90 to 100%
Ctenocephalides felis
  mortality at 1000 ppm: 100%
Tetranychus urticae
  mortality at 300 ppm: 90 to 100%
Spodoptera litoralis
  mortality at 300 ppm: 90 to 100%
Lucilia cuprina
  mortality at 100 ppm: 100%

## CC(C)Oc1ccc(-c2ccc(C3COC(c4c(F)cccc4F)=N3)cc2)cn1 (stereo not shown) [Example 5]
[1]
  mortality of the test animals: 100%
Lucilia cuprina
  mortality in the fly larvae: 100%

## CC(C)COc1ccc(-c2ccc(C3COC(c4c(F)cccc4F)=N3)cc2)cn1 (stereo not shown) [Example 8, 2-(2,6-Difluorophenyl)-4-[4-(2-isobutyloxypyridin-5-yl)phenyl]oxazoline]
Heliothis virescens
  mortality at 300 ppm: 90 to 100%
Aphis fabae
  mortality at 300 ppm: 90 to 100%
Tetranychus urticae
  mortality at 300 ppm: 90 to 100%

## CCC(C)Oc1ccc(-c2ccc(C3COC(c4c(F)cccc4F)=N3)cc2)cn1 (stereo not shown) [Example 9]
[1]
  mortality of the test animals: 100%

## Fc1cccc(F)c1C1=NC(c2ccc(-c3ccc(OCC(F)(F)F)nc3)cc2)CS1 (stereo not shown) [Example 19, 2-(2,6-Difluorophenyl)-4-[4-(2-trifluoroethoxypyridin-5-yl)phenyl]thiazoline]
[1]
  mortality at 300 ppm: 100%

## CCCc1ccc(-c2ccc(C3COC(c4c(F)cccc4F)=N3)cc2)cn1 (stereo not shown) [Example 34, 2-(2,6-Difluorophenyl)-4-[4-(2-n-propylpyridin-5-yl)phenyl]oxazoline]
Heliothis virescens
  mortality at 300 ppm: 90 to 100%

## CCSc1ccc(-c2ccc(C3COC(c4c(F)cccc4F)=N3)cc2)cn1 (stereo not shown) [Example 39, 2-(2,6-Difluorophenyl)-4-[4-(2-ethylthiopyridin-5-yl)phenyl]oxazoline]
Heliothis virescens
  mortality at 300 ppm: 90 to 100%
[1]
  mortality at 300 ppm: 100%

## CC[S+]([O-])c1ccc(-c2ccc(C3COC(c4c(F)cccc4F)=N3)cc2)cn1 (stereo not shown) [Example 40, 2-(2,6-Difluorophenyl)-4-[4-(2-ethylsulfinylpyridin-5-yl)phenyl]oxazoline]
Heliothis virescens
  mortality at 300 ppm: 90 to 100%
Tetranychus urticae
  mortality at 300 ppm: 90 to 100%

## CCOc1ccc(-c2ccc(C3COC(c4c(F)cccc4F)=N3)c(OC)c2)cn1 (stereo not shown) [Example 105]
Lucilia cuprina
  mortality in the fly larvae: 100%

## CCOc1cc(-c2ccc(OCC(F)(F)F)nc2)ccc1C1COC(c2c(F)cccc2F)=N1 (stereo not shown) [Example 106, 2-(2,6-Difluorophenyl)-4-[2-ethoxy-4-(2-trifluoroethoxypyridin-5-yl)phenyl]-oxazoline]
Heliothis virescens
  mortality at 300 ppm: 90 to 100%
Tetranychus urticae
  mortality at 300 ppm: 90 to 100%
Spodoptera litoralis
  mortality at 300 ppm: 90 to 100%
Lucilia cuprina
  mortality at 100 ppm: 100%

## Fc1ccccc1C1=NC(c2ccc(-c3ccc(OCC(F)(F)F)nc3)cc2)CO1 (stereo not shown) [Example 402, 2-(2-Fluorophenyl)-4-[4-(2-trifluoroethoxypyridin-5-yl)phenyl]oxazoline]
other
  melting point: 101 °C
